{"source": "patent US7157408B2", "about": "“Quinoline fungicides” (Valent BioSciences Corporation, priority 2004, dated 2007)", "key": {"Botrytis cinerea [1]": {"system": "Botrytis cinerea", "test": "Detached bean leaf bioassay, fungal control", "format": "in vivo", "conditions": "200 ppm, three days after inoculation, 100 minus percent necrotic area", "experimental": "Compound solution: Compound solutions were prepared by diluting compound stock solutions (1.0% w/v compound in DMSO) to 200 ppm with 0.01% w/v Triton X-100. Spore solution preparation: Botrytis cinerea spores were taken from 6-week-old cultures grown at 22C on full strength potato dextrous agar (PDA) plates and harvested in 1:16 frozen orange juice concentrate:water. Botrytis cinerea spore solutions were prepared by diluting spore cultures to 5×10^4 spores/mL with 1:16 frozen orange juice concentrate:water. Plant material: Middle trifoliate leaves of greenhouse grown Phaseolus vulgaris (Bush bean cv. Blue Lake 274) were excised and placed on a plastic grid above a tray containing moist towels. Treatment method: One half of the adaxial surface of the leaf was treated with the compound solution (100 :L) using a 3 cm Bacti Cell Spreader. A blank consisted of 0.01% w/v Triton X-100. A commercial fungicide control (200 ppm diluted with water) consisted of Scala. […] Fungal control rating: Three days after inoculation with Botrytis, the percent necrotic area under the inoculation droplet was determined. Since the areas under the blank (0.01% w/v Triton X-100) were 100% infected, fungal control was expressed as 100 minus the percent necrotic area, and thus 0% infected is 100% fungal control (n=3 leaves/compound, 5 inoculation droplets/leaf, Table 2)."}, "Pythium aphanidermatum": {"system": "Pythium aphanidermatum", "test": "Contact evaluation (microtiter plate)", "format": "cell-based", "experimental": "(§1) Compound solution: Contact evaluations were conducted to determine the anti-fungal activity of each compound against Botrytis cinerea, Sclerotinia sclerotiorum, Pythium aphanidermatum, Rhizoctonia solani, Cercospora arachidicola, Mycosphaerella fjiensis, and Monilinia laxa. Five milligrams of each compound were dissolved in 0.5 milliliter of DMSO for a compound stock solution of 1.0% w/v. Compound stock solutions were serial diluted with DMSO to 20, 10, and 2 ppm final well concentration. Fungi preparation: Botrytis cinerea spores were taken from 6-week-old cultures grown at 22C on full strength potato dextrous agar (PDA) plates. Sclerotinia sclerotiorum, Pythium aphanidermatum, Rhizoctonia solani, and Monilinia laxa mycelia were taken from 4- to 10-day-old shake flask cultures grown at room temperature on full strength potato dextrous broth (PDB). Cercospora arachidicola mycelia were taken from 10- to 14-day-old shake flask cultures grown at room temperature on a full strength PDB amended with peanut oil. Mycosphaerella fijiensis mycelia were taken from 10- to 14-day-old shake flask cultures grown at room temperature on V8 juice broth. Sclerotinia sclerotiorum, Pythium aphanidermatum, Rhizoctonia solani, Cercospora arachidicola, and Mycosphaerella fijiensis mycelia (0.4 g mycelia) were blended for 45 seconds in 20 mL sterile de-ionized water. Monilinia laxa mycelia (1 g mycelia) was blended for 45 seconds in 30 mL of sterile de-ionized water. Botrytis cinerea spores were diluted with quarter strength PDB to 1×10^5 spores/mL final well concentration. All mycelia were diluted in water (1:5 mycelia:water) before distributing into the wells. Microtiter plate preparation: Compound solution (10 :L), quarter strength PDB (900 :L) and fungi preparation (100 :L) were sequentially distributed into 48-well microtiter plates (n=3 replications/compound/rate). A blank consisted of quarter strength PDB and fungi preparation. Commercial fungicide controls (100 ppm diluted with water) consisted of Scala for Botrytis cinerea, Dithane F-45 for Mycosphaerella fijiensis, and Benlate for Sclerotinia sclerotiorum, Pythium aphanidermatum, Rhizoctonia solani, Cercospora arachidicola, and Monilinia laxa. Plates were shaken in a circular rotator at room temperature for 20 minutes, then incubated at 25C for 24 to 72 hours, depending on the pathogen. Fungal control ratings: Fungal growth in wells containing the compounds were compared to the positive control and fungal inhibition was rated as full, partial, or none. Final readings were the average of the three wells (Table 1)."}, "Cercospora arachidicola": {"system": "Cercospora arachidicola", "test": "Contact evaluation (microtiter plate)", "format": "cell-based", "experimental": "as §1"}, "Rhizoctonia solani": {"system": "Rhizoctonia solani", "test": "Contact evaluation (microtiter plate)", "format": "cell-based", "conditions": "Rhizoctinia solani", "experimental": "as §1"}, "Sclerotinia sclerotiorum": {"system": "Sclerotinia sclerotiorum", "test": "Contact evaluation (microtiter plate)", "format": "cell-based", "conditions": "Sclerotinia sclerotionum", "experimental": "as §1"}, "Monilinia laxa": {"system": "Monilinia laxa", "test": "Contact evaluation (microtiter plate)", "format": "cell-based", "experimental": "as §1"}, "Botrytis cinerea [2]": {"system": "Botrytis cinerea", "test": "Contact evaluation (microtiter plate)", "format": "cell-based", "experimental": "as §1"}, "Mycosphaerella fijiensis": {"system": "Mycosphaerella fijiensis", "test": "Contact evaluation (microtiter plate)", "format": "cell-based", "experimental": "as §1"}, "[3]": {"system": "Phaseolus vulgaris (Bush bean cv. Blue Lake 274) leaves", "test": "Detached bean leaf bioassay, phytotoxicity rating", "format": "in vivo", "conditions": "200 ppm, scale 0=no, 1=slight, 2=moderate, 3=excessive phytotoxicity", "experimental": "Compound solution: Compound solutions were prepared by diluting compound stock solutions (1.0% w/v compound in DMSO) to 200 ppm with 0.01% w/v Triton X-100. Plant material: Middle trifoliate leaves of greenhouse grown Phaseolus vulgaris (Bush bean cv. Blue Lake 274) were excised and placed on a plastic grid above a tray containing moist towels. Treatment method: One half of the adaxial surface of the leaf was treated with the compound solution (100 :L) using a 3 cm Bacti Cell Spreader. A blank consisted of 0.01% w/v Triton X-100. A commercial fungicide control (200 ppm diluted with water) consisted of Scala. After the solutions dried, the trays containing the leaves were covered and held one day in a growth chamber (22C). The adaxial surfaces of the leaves were then inoculated with 5–60 :L droplets of Botrytis cinerea spore solution. Phytotoxicity ratings: Phytotoxicity was rated as 0=no phytotoxicity, 1=slight phytotoxicity, 2=moderate phytotoxicity, or 3=excessive phytotoxicity (Table 2)."}}}
{"smiles": "OCCc1c(Br)cc(Br)c2cccnc12", "note": "[Example 1, 5,7-dibromo-8-(2-hydroxyethyl)quinoline]", "values": [{"measurement": "melting point", "result": "128 to 131", "unit": "°C"}, {"measurement": "Botrytis cinerea control", "setting": "Botrytis cinerea [1]", "result": 100, "unit": "%"}, {"measurement": "Control of fungi (full, partial, none)", "setting": "Pythium aphanidermatum; fungicide rate 2 ppm", "result": "Full"}, {"measurement": "Control of fungi (full, partial, none)", "setting": "Pythium aphanidermatum; fungicide rate 10 ppm", "result": "Full"}, {"measurement": "Control of fungi (full, partial, none)", "setting": "Pythium aphanidermatum; fungicide rate 20 ppm", "result": "Full"}, {"measurement": "Control of fungi (full, partial, none)", "setting": "Cercospora arachidicola; fungicide rate 2 ppm", "result": "None"}, {"measurement": "Control of fungi (full, partial, none)", "setting": "Cercospora arachidicola; fungicide rate 10 ppm", "result": "Full"}, {"measurement": "Control of fungi (full, partial, none)", "setting": "Cercospora arachidicola; fungicide rate 20 ppm", "result": "Full"}, {"measurement": "Control of fungi (full, partial, none)", "setting": "Rhizoctonia solani; fungicide rate 2 ppm", "result": "Full"}, {"measurement": "Control of fungi (full, partial, none)", "setting": "Rhizoctonia solani; fungicide rate 10 ppm", "result": "Full"}, {"measurement": "Control of fungi (full, partial, none)", "setting": "Rhizoctonia solani; fungicide rate 20 ppm", "result": "Full"}, {"measurement": "Control of fungi (full, partial, none)", "setting": "Sclerotinia sclerotiorum; fungicide rate 2 ppm", "result": "Full"}, {"measurement": "Control of fungi (full, partial, none)", "setting": "Sclerotinia sclerotiorum; fungicide rate 10 ppm", "result": "Full"}, {"measurement": "Control of fungi (full, partial, none)", "setting": "Sclerotinia sclerotiorum; fungicide rate 20 ppm", "result": "Full"}, {"measurement": "Control of fungi (full, partial, none)", "setting": "Monilinia laxa; fungicide rate 2 ppm", "result": "Full"}, {"measurement": "Control of fungi (full, partial, none)", "setting": "Monilinia laxa; fungicide rate 10 ppm", "result": "Full"}, {"measurement": "Control of fungi (full, partial, none)", "setting": "Monilinia laxa; fungicide rate 20 ppm", "result": "Full"}, {"measurement": "Control of fungi (full, partial, none)", "setting": "Botrytis cinerea [2]; fungicide rate 2 ppm", "result": "Partial"}, {"measurement": "Control of fungi (full, partial, none)", "setting": "Botrytis cinerea [2]; fungicide rate 10 ppm", "result": "Full"}, {"measurement": "Control of fungi (full, partial, none)", "setting": "Botrytis cinerea [2]; fungicide rate 20 ppm", "result": "Full"}, {"measurement": "Control of fungi (full, partial, none)", "setting": "Mycosphaerella fijiensis; fungicide rate 2 ppm", "result": "Full"}, {"measurement": "Control of fungi (full, partial, none)", "setting": "Mycosphaerella fijiensis; fungicide rate 10 ppm", "result": "Full"}, {"measurement": "Control of fungi (full, partial, none)", "setting": "Mycosphaerella fijiensis; fungicide rate 20 ppm", "result": "Full"}, {"measurement": "Phytotoxity", "setting": "[3]", "result": "Slight"}]}
